Results as given in the Kinase Knowledgebase extract (Sharma et al. 2016).

Target: PIK3CD (Human) (UniProt O00329)
Assay: Assessment of PIK3CD Kinase Activity (Scintillation Proximity Assay)

Chain of PIK3CD (Human) (O00329 whole entry, looked up): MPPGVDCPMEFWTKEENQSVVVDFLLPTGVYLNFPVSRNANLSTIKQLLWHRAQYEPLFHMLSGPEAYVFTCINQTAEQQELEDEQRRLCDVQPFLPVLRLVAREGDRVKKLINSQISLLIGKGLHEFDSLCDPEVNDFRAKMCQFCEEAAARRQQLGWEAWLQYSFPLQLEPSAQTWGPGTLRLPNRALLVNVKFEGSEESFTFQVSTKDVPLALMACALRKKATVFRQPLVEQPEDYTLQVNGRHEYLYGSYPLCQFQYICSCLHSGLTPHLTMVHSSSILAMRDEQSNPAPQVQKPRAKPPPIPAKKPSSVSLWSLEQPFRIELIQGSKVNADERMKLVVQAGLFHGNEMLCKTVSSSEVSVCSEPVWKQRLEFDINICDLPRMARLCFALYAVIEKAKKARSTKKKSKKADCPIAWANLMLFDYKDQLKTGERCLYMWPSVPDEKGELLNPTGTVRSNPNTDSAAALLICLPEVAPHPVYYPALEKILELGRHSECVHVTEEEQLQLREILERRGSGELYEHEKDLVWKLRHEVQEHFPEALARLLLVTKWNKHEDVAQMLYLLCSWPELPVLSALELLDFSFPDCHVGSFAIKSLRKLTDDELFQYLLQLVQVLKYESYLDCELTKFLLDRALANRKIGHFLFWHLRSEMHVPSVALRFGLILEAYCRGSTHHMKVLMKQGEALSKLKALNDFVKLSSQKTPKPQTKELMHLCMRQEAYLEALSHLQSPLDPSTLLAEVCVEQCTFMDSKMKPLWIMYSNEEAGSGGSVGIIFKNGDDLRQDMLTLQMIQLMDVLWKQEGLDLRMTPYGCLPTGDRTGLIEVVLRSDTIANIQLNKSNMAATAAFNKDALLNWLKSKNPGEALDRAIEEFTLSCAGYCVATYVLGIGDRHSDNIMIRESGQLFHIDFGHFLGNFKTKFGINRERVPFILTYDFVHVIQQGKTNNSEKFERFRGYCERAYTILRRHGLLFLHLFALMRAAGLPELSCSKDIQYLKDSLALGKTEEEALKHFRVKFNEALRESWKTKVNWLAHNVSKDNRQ

IC50 [nM] | Compound
≤ 10 | COc1c(C(C)n2nc(C)c3c(N)ncnc32)cc(Cl)c(C#N)c1C1CN(C2CCOC2)C1 (stereo not drawn)
≤ 10 | COc1c(C(C)n2nc(C)c3c(N)ncnc32)cc(Cl)c(Cl)c1C1CN(C[C@@H](C)O)C1 (stereo partly drawn)
≤ 10 | COc1c(C(C)n2nc(C(F)F)c3c(N)ncnc32)cc(C#N)c(F)c1C1CN(C[C@H](C)O)C1 (stereo partly drawn)
≤ 10 | COc1c(C(C)n2nc(C)c3c(N)ncnc32)cc(Cl)c(C#N)c1C1CN(S(C)(=O)=O)C1 (stereo not drawn)
≤ 10 | COc1c(C(C)n2nc(C)c3c(N)ncnc32)cc(Cl)c(C#N)c1C1CN(C[C@@H](C)O)C1 (stereo partly drawn)
≤ 10 | COc1c(C(C)n2nc(C)c3c(N)ncnc32)cc(Cl)c(C)c1-c1cncnc1 (stereo not drawn)
≤ 10 | COc1c(C(C)n2nc(C(F)F)c3c(N)ncnc32)cc(Cl)c(F)c1C1CN(C)C1 (stereo not drawn)
≤ 10 | COc1c(C(C)n2nc(C)c3c(N)ncnc32)cc(Cl)c(C)c1-c1ccnc(N2CC(O)C2)c1 (stereo not drawn)
≤ 10 | COc1c(C(C)n2nc(C)c3c(N)ncnc32)cc(Cl)c(Cl)c1C1CN(CC#N)C1 (stereo not drawn)
50 to 200 | CCOc1c(C(C)n2nc(CN(C)C)c3c(N)ncnc32)cc(Cl)c(C)c1-c1ccc(C(=O)N(C)C)nc1 (stereo not drawn)
≤ 10 | COc1c(C(C)n2ccc(=O)c3c(N)ncnc32)cc(Cl)c(C)c1C1CN(C(C)C)C1 (stereo not drawn)
≤ 10 | CCOc1c(C(C)n2nc(C)c3c(N)ncnc32)cc(Cl)c(C)c1C#N (stereo not drawn)
50 to 200 | COc1c(C(C)n2ncc3c(N)ncnc32)cc(Cl)c(C)c1-c1ccnc(C(=O)NCCO)c1 (stereo not drawn)
≤ 10 | COc1c(C(C)n2nc(C)c3c(N)ncnc32)cc(Cl)c(C)c1C1CN(CC(C)C#N)C1 (stereo not drawn)
≤ 10 | COc1c(C(C)n2nc(C)c3c(N)ncnc32)cc(Cl)c(C)c1-c1cncc(C(=O)N(C)C)c1 (stereo not drawn)
≤ 10 | COc1c(C(C)n2nc(C)c3c(N)ncnc32)cc(Cl)c(C)c1C1CN(CC(F)F)C1 (stereo not drawn)
≤ 10 | COc1c(C(C)n2nc(C)c3c(N)ncnc32)cc(Cl)c(C)c1C1CN(C(CO)C(F)(F)F)C1 (stereo not drawn)
≤ 10 | COc1c([C@H](C)n2nc(C)c3c(N)ncnc32)cc(Cl)c(C#N)c1C1CN(C[C@@H](C)O)C1
≤ 10 | CCOc1c(C(C)n2nc(C)c3c(N)ncnc32)cc(Cl)c(C#N)c1C1CN(S(=O)(=O)C2CC2)C1 (stereo not drawn)
≤ 10 | CCOc1c(C(C)n2nc(C)c3c(N)ncnc32)cc(Cl)c(C#N)c1C1CN(C(=O)OC(C)C)C1 (stereo not drawn)
≤ 10 | CCOc1c(C(C)n2nc(C)c3c(N)ncnc32)cc(Cl)c(C#N)c1C1CN(C[C@@H](C)O)C1 (stereo partly drawn)
≤ 10 | COc1c(C(C)n2nc(C)c3c(N)ncnc32)cc(Cl)c(C)c1C1CN(C(=O)[C@@H](C)O)C1 (stereo partly drawn)

IC50 [nM] | Compound
10 to 50 | COc1c(C(C)n2nc(C)c3c(N)ncnc32)cc(Cl)c(C)c1C1CC1 (stereo not drawn)
≤ 10 | CCOc1c(C(C)n2cc(C)c3c(N)ncnc32)cc(Cl)c(C#N)c1C1CN(C(C)C)C1 (stereo not drawn)
≤ 10 | COc1c(C(C)n2nc(C)c3c(N)ncnc32)cc(Cl)c(C)c1C1CN([C@H](C)CO)C1 (stereo partly drawn)
≤ 10 | COc1c(C(C)n2nc(C)c3c(N)ncnc32)cc(Cl)c(C)c1C1CN(C(=O)C2(O)CC2)C1 (stereo not drawn)
≤ 10 | CCNC(=O)N1CC(c2c(C#N)c(Cl)cc(C(C)n3nc(C)c4c(N)ncnc43)c2OCC)C1 (stereo not drawn)
≤ 10 | CCOc1c(C(C)n2nc(C)c3c(N)ncnc32)cc(Cl)c(C#N)c1N1CC(C#N)C1 (stereo not drawn)
≤ 10 | COc1c(C(C)n2nc(C)c3c(N)ncnc32)cc(Cl)c(Cl)c1C1CN(C(C)=O)C1 (stereo not drawn)
≤ 10 | COc1c(C(C)n2nc(C)c3c(N)ncnc32)cc(Cl)c(F)c1C1CN(CC(C)(C)O)C1 (stereo not drawn)
≤ 10 | COc1c(C(C)n2nc(C)c3c(N)ncnc32)cc(Cl)c(C#N)c1C1CN(C(=O)C2CC2)C1 (stereo not drawn)
≤ 10 | CCOc1c(C(C)n2nc(C)c3c(N)ncnc32)cc(Cl)c(C)c1C1CN(CC(C)(C)O)C1 (stereo not drawn)
≤ 10 | COc1c(C(C)n2nc(C)c3c(N)ncnc32)cc(Cl)c(C#N)c1C1CN(CC(C)C)C1 (stereo not drawn)
≤ 10 | CCN1CC(c2c(Cl)c(Cl)cc(C(C)n3nc(C)c4c(N)ncnc43)c2OC)C1 (stereo not drawn)
≤ 10 | CCOc1c(C(C)n2nc(C)c3c(N)ncnc32)cc(Cl)c(C#N)c1C1CN(C[C@H](C)O)C1 (stereo partly drawn)
≤ 10 | CCOc1c(C(C)n2nc(C)c3c(N)ncnc32)cc(Cl)c(C)c1C1CN(C(=O)[C@@H](C)O)C1 (stereo partly drawn)
≤ 10 | CCOc1c(C(C)n2nc(C)c3c(N)ncnc32)cc(Cl)c(C#N)c1C1CN(CC2CC2)C1 (stereo not drawn)
≤ 10 | CCNC(=O)c1c(C)c(Cl)cc(C(C)n2nc(-c3ccc4nc(N)sc4c3)c3c(N)ncnc32)c1OCC (stereo not drawn)
≤ 10 | CCOc1c(C(C)n2nc(C)c3c(N)ncnc32)cc(Cl)c(C)c1C1CNC(=O)C1 (stereo not drawn)
≤ 10 | CCOc1c(C(C)n2nc(C)c3c(N)ncnc32)cc(Cl)c(F)c1C1CNC(=O)O1 (stereo not drawn)
≤ 10 | CCOc1c(C(C)n2nc(C)c3c(N)ncnc32)cc(C)c(C#N)c1-c1cnn(C)c1 (stereo not drawn)
≤ 10 | CCOC(=O)N1CC(c2c(C#N)c(Cl)cc(C(C)n3nc(C)c4c(N)ncnc43)c2OCC)C1 (stereo not drawn)
≤ 10 | COc1c(C(C)n2nc(C(F)F)c3c(N)ncnc32)cc(C#N)c(C)c1C1CN(CC(F)(F)F)C1 (stereo not drawn)
≤ 10 | CCOc1c(C(C)n2nc(C)c3c(N)ncnc32)cc(Cl)c(C#N)c1C1CN(CCC(F)(F)F)C1 (stereo not drawn)

IC50 [nM] | Compound
≤ 10 | COc1c(C(C)n2nc(C(F)F)c3c(N)ncnc32)cc(C#N)c(C)c1C1CN(CC(C)(C)O)C1 (stereo not drawn)
10 to 50 | COc1c(C(C)n2nc(C)c3c(N)ncnc32)cc(C#N)c(C)c1-c1cnn(C)c1 (stereo not drawn)
≤ 10 | COc1c(C(C)n2ccc(=O)c3c(N)ncnc32)cc(Cl)c(C)c1-c1cncc(C#N)c1 (stereo not drawn)
≤ 10 | CCOc1c(C(C)n2nc(C)c3c(N)ncnc32)cc(Cl)c(C#N)c1-c1cncc(S(C)(=O)=O)c1 (stereo not drawn)
50 to 200 | CCOc1c(C(C)n2nc(CC)c3c(N)ncnc32)cc(Cl)c(C)c1-c1ccc(C(=O)N(C)C)nc1 (stereo not drawn)
≤ 10 | COc1c(C(C)n2nc(-c3cn[nH]c3)c3c(N)ncnc32)cc(Cl)c(C)c1C1CN(CC#N)C1 (stereo not drawn)
≤ 10 | COc1c(C(C)n2nc(C)c3c(N)ncnc32)cc(Cl)c(C)c1C1CN(C(=O)C2CC2)C1 (stereo not drawn)
≤ 10 | CCOc1c(C(C)n2nc(-c3cncc(C(=O)N(C)C)c3)c3c(N)ncnc32)cc(Cl)c(C)c1-c1ccc(C(=O)N(C)C)nc1 (stereo not drawn)
10 to 50 | CCOc1c(C(C)n2nc(C#N)c3c(N)ncnc32)cc(Cl)c(C)c1-c1ccc(C(=O)N(C)C)nc1 (stereo not drawn)
≤ 10 | CCNC(=O)c1c(C)c(Cl)cc(C(C)n2nc(-c3cn[nH]c3)c3c(N)ncnc32)c1OCC (stereo not drawn)
≤ 10 | CCOc1c(C(C)n2nc(C)c3c(N)ncnc32)cc(Cl)c(C#N)c1-c1ccnc(C(=O)N(C)C)c1 (stereo not drawn)
≤ 10 | COCCN1CC(c2c(C)c(Cl)cc(C(C)n3nc(C)c4c(N)ncnc43)c2OC)C1 (stereo not drawn)
≤ 10 | CCOc1c(C(C)n2nc(-c3ccc(C(=O)NC)nc3)c3c(N)ncnc32)cc(Cl)c(C)c1-c1ccc(C(=O)N(C)C)nc1 (stereo not drawn)
≤ 10 | CCOc1c(C(C)n2nc(C)c3c(N)ncnc32)cc(Cl)c(C#N)c1C1CN(C(=O)NC)C1 (stereo not drawn)
≤ 10 | COc1c(C(C)n2nc(C)c3c(N)ncnc32)cc(Cl)c(C)c1C1CN(CC(C)(C)O)C1 (stereo not drawn)
≤ 10 | CCOc1c(C(C)n2nc(C)c3c(N)ncnc32)cc(Cl)c(C)c1C1CN(C[C@H](C)O)C1 (stereo partly drawn)
≤ 10 | CCOc1c(C(C)n2nc(C)c3c(N)ncnc32)cc(Cl)c(C)c1-c1ccc(C(=O)N(C)C)cn1 (stereo not drawn)
≤ 10 | COc1c(C(C)n2nc(C)c3c(N)ncnc32)cc(Cl)c(C)c1CCC(=O)N(C)C (stereo not drawn)
≤ 10 | CCNC(=O)c1c(C)c(Cl)cc(C(C)n2nc(-c3ccc4[nH]ccc4c3)c3c(N)ncnc32)c1OCC (stereo not drawn)
≤ 10 | COc1c(C(C)n2nc(C)c3c(N)ncnc32)cc(Cl)c(F)c1C1CN(CCO)C1 (stereo not drawn)
≤ 10 | CCOc1c(C(C)n2nc(C)c3c(N)ncnc32)cc(Cl)c(C#N)c1C1CN(CC#N)C1 (stereo not drawn)
≤ 10 | COc1c(C(C)n2nc(C)c3c(N)ncnc32)cc(Cl)c(C#N)c1C1CN(C2CCC2)C1 (stereo not drawn)

IC50 [nM] | Compound
10 to 50 | COc1c(C(C)n2nc(C)c3c(N)ncnc32)cc(C#N)c(C)c1-c1ccnc(C(=O)N(C)CCO)c1 (stereo not drawn)
≤ 10 | COc1c(C(C)n2nc(C(F)F)c3c(N)ncnc32)cc(C#N)c(C)c1C1CN(C(C)=O)C1 (stereo not drawn)
≤ 10 | CNC(=O)[C@@H](C)N1CC(c2c(C)c(C#N)cc(C(C)n3nc(C(F)F)c4c(N)ncnc43)c2OC)C1 (stereo partly drawn)
≤ 10 | COc1c(C(C)n2ccc(=O)c3c(N)ncnc32)cc(Cl)c(C)c1-c1cncc(F)c1 (stereo not drawn)
≤ 10 | CCC(C)N1CC(c2c(C)c(Cl)cc(C(C)n3nc(C)c4c(N)ncnc43)c2OC)C1 (stereo not drawn)
≤ 10 | CNC(=O)N1CC(c2c(C#N)c(Cl)cc(C(C)n3nc(C)c4c(N)ncnc43)c2OC)C1 (stereo not drawn)
≤ 10 | CCC(=O)N1CC(c2c(C)c(Cl)cc(C(C)n3nc(C)c4c(N)ncnc43)c2OC)C1 (stereo not drawn)
≤ 10 | CCOc1c(C(C)n2nc(C)c3c(N)ncnc32)cc(Cl)c(F)c1C1CN(CC)C1 (stereo not drawn)
≤ 10 | CCOc1c(C(C)n2nc(C)c3c(N)ncnc32)cc(Cl)c(C)c1-c1cnn(CC(N)=O)c1 (stereo not drawn)
≤ 10 | COc1c(C(C)n2nc(C)c3c(N)ncnc32)cc(Cl)c(C#N)c1C1CN(C2COC2)C1 (stereo not drawn)
≤ 10 | CCOc1c(C(C)n2nc(C)c3c(N)ncnc32)cc(Cl)c(C#N)c1C1CN(C(C)(C)C(=O)OC(C)(C)C)C1 (stereo not drawn)
≤ 10 | CCOc1c(C(C)n2nc(C)c3c(N)ncnc32)cc(Cl)c(C#N)c1-c1ccc(-c2nnn(C)n2)nc1 (stereo not drawn)
10 to 50 | COc1c(C(C)n2ncc3c(N)ncnc32)cc(Cl)c(C)c1-c1ccnc(C(=O)N(C)C)c1 (stereo not drawn)
≤ 10 | CCOc1c(C(C)n2nc(C)c3c(N)ncnc32)cc(Cl)c(C#N)c1C1CN(C(=O)C(C)(C)O)C1 (stereo not drawn)
≤ 10 | CCOc1c(C(C)n2nc(CC#N)c3c(N)ncnc32)cc(Cl)c(C)c1-c1ccc(C(=O)N(C)C)nc1 (stereo not drawn)
≤ 10 | CCN1CC(c2c(C)c(Cl)cc(C(C)n3nc(C)c4c(N)ncnc43)c2OC)C1 (stereo not drawn)
≤ 10 | CCOc1c(C(C)n2nc(C)c3c(N)ncnc32)cc(Cl)c(C)c1-c1cncc(S(C)(=O)=O)c1 (stereo not drawn)
≤ 10 | CCOc1c(C(C)n2nc(C)c3c(N)ncnc32)cc(C)c(C#N)c1C1CN(CC(C)(C)O)C1 (stereo not drawn)
≤ 10 | CCNC(=O)c1c(C)c(Cl)cc(C(C)n2nc(-c3cc(O)cc(F)c3)c3c(N)ncnc32)c1OCC (stereo not drawn)
≤ 10 | COc1c(C(C)n2cc(C)c3c(N)ncnc32)cc(Cl)c(C)c1-c1ccc(C(=O)N(C)C)nc1 (stereo not drawn)
≤ 10 | COc1c(C(C)n2nc(C)c3c(N)ncnc32)cc(Cl)c(C)c1C1CN(C(=O)c2cnoc2C)C1 (stereo not drawn)
≤ 10 | CCOc1c(C(C)n2nc(C)c3c(N)ncnc32)cc(Cl)c(C#N)c1-c1cncc(C(=O)NC)c1 (stereo not drawn)
